Experimental data: PMC9916778 (International Journal of Molecular Sciences, 2023)
Where two headings read alike, the source gives them in different places.

Experiments:
[1] = test system: A2780R Cisplatin-resistant ovarian carcinoma cells; assay: In vitro cytotoxicity (MTT assay), A2780R; type: cell-based, human; details: ± standard deviation, triplicate
Description: (§1) The testing was performed on the ovarian carcinoma (A2780), Cisplatin-resistant ovarian carcinoma (A2780R), prostate adenocarcinoma (PC-3), prostate carcinoma (22Rv1), and leukemia monocytic (THP-1) and intestinal colon adenocarcinoma (LS180) human cell lines that were obtained from the ATCC collection of cell lines and cultivated according to the producer’s instructions. The reference normal cell line of human fetal fibroblasts (MRC-5) was obtained from the same commercial source and maintained according to the producer’s instructions. The half-maximal inhibitory concentrations (IC50) were calculated from dose–response curves by means of the GraphPad Prism 6 software (GraphPad Software, San Diego, CA, USA).

[2] = test system: MRC5 human fetal fibroblasts; assay: In vitro cytotoxicity (MTT assay), normal MRC-5 fibroblasts; type: cell-based; details: ± standard deviation, triplicate, read-out: IC50, MRC5 (healthy cells)
Description: as §1

[3] = test system: PC-3 prostate adenocarcinoma cells; assay: In vitro cytotoxicity (MTT assay), PC-3; type: cell-based, human; details: ± standard deviation, triplicate
Description: as §1

caspases 3/7 = assay: Caspase 3/7 activation (flow cytometry); type: cell-based, human; details: A2780, half-cytotoxic concentration, 24 h
Description: The induction of cell death by complex (1) was studied by two methods in the A2780 cell line. Firstly, the induction of apoptosis was tested using an Annexin V-FITC/PI commercial kit (V13242, Thermo Fisher Scientific, USA). Second, caspase 3/7 activation was monitored using the CellEvent™ Caspase-3/7 Green Flow Cytometry Assay Kit (C10427, Thermo Fisher Scientific, USA). Both assays were performed according to the manufacturers’ protocols with one modification in the caspase induction assay: the use of CellEvent^TM Caspase-3/7 Green Detection Reagent was only for the detection of caspase 3/7 activation. The general procedure was as follows: 5 × 10^4 cells per well were seeded in a 24-well cell culture plate, and after 24 h, the cells were treated with 4 µM solution of complex (1) and cultivated for next 24 h. […] The trypsin was blocked by adding the cell culture medium to a final volume of 500 µL, and the resulting cell suspensions were divided into two separate 250 µL aliquots. The first set of aliquots was used to evaluate the Annexin V-FITC/PI assay, whilst the second one was used for the caspase 3/7 activation assay. Both assays were performed using a BD FACSVerse flow cytometer (Becton Dickinson, USA) in three independent experiments, each performed in duplicate.

THP1-Blue™ NF-κB cells = assay: Cell viability, CCK-8, serum-free medium; type: cell-based, human
Description: The cells were cultivated in RPMI (Roswell Park Memorial Institute) 1640 medium (Biosera; Nuaille, France) supplemented with 10% fetal bovine serum (FBS) and antibiotics (100 U/mL penicillin and […] streptomycin) (both from Merck). All further experiments were performed in serum-free medium. The effect of the test compounds dissolved in DMF on cell viability after 24 h incubation was determined using a Cell Counting Kit-8 (CCK-8; Merck) according to the manufacturer’s instructions, similarly as previously described.

[4] = test system: human cancer cell lines (A2780, A2780R, PC-3, 22Rv1, and THP-1); assay: In vitro cytotoxicity, summary statements over the panel of cell lines; type: cell-based; details: IC50 for normal cell line/IC50 for cancerous cell line
Description: as §1

A2780 cells = assay: Cell cycle analysis (flow cytometry); type: cell-based, human; details: A2780, half-cytotoxic concentration, 24 h
Description: After 24 h, the cells were treated with a 4 µM solution of complex (1) and cultivated for the next 24 h. Then, the cells were washed once with PBS (0.1 M, pH 7.4), and cell cycle analysis was performed using a BD Cycletest^TM Plus DNA kit (Becton Dickinson, Franklin Lakes, NJ, USA) according to the manufacturer’s protocol. The data were acquired using a BD FACSVerse flow cytometer (Becton Dickinson, USA) in three independent experiments, each performed in duplicate, while at least 5 × 10^3 events were recorded for each sample.

PPARγ = assay: Immunocytochemical analysis of PPARγ expression and localisation; type: cell-based, human; details: 100 nM, 1 h pre-treatment, LPS-stimulated THP1-Blue NF-κB macrophages
Description: THP1-Blue™ NF-κB cells were seeded onto a µ-Slide 8 Well (Ibidi; Gräfelfing, Germany) and differentiated into macrophages by […] (PMA) at the final concentration of 50 ng/mL, as was described previously.
Differentiated macrophages were washed by PBS and covered by fresh serum-free medium for 2 h. […] One hour later, the cells were challenged by LPS for 24 h. Then, the cells were washed by PBS and fixed by 4% paraformaldehyde dissolved in PBS for 10 min. Cell permeabilization and blocking of free binding sites were performed by 0.1% (v/v) Triton X100 and 5% (w/v) bovine serum albumin (BSA) dissolved in PBS for 1 h at room temperature. After that, cells were washed by PBS with 0.1% (v/v) Tween 20 and covered by fresh PBS with 5% BSA and 0.1% Tween 20 containing Alexa Fluor® 546-labelled anti-PPARγ antibody diluted 1:100 (catalogue number sc-7273; Santa Cruz Biotechnology; Dallas, TX, USA) for a further 24 h. Then, cells were washed by PBS with 0.1% Tween 20 and incubated with Hoechst stain diluted 1:2000 for 10 min. The remaining stain was washed out by PBS and covered by fresh PBS for further microscope analysis. The confocal microscope Leica TCS SP8 MP (Leica Microsystems, Mannheim, Germany) was used for obtaining the images for the immunocytochemical analysis of PPARγ expression and localization.

Row | Compound | IC50 [1] [µM] | IC50 [2] [µM] | IC50 [3] [µM] | Activation of caspases 3/7 (caspases 3/7) | IC50 (THP1-Blue™ NF-κB cells; THP1-Blue NF-κB cells, serum-free medium, 24 h treatment, CCK-8, read-out: IC50 ± SEM, cytotoxic effect) [µM] | selectivity index (SI) [4] | Population of cells in G2/M phase (A2780 cells) [%] | Population of cells in S phase (A2780 cells) [%] | Number of cells in the G0/G1 phase (A2780 cells; vs untreated control) | Effect on the amount of PPARγ (PPARγ) | Cells with active executioner caspases 3/7 (caspases 3/7) | IC50 (THP1-Blue™ NF-κB cells) [µM] | Effect on the cell cycle (A2780 cells)
1 | CC[PH](CC)(CC)[Au][S][C@@H]1O[C@H](COC(C)=O)[C@@H](OC(C)=O)[C@H](OC(C)=O)[C@H]1OC(C)=O [Auranofin, [3,4,5-triacetyloxy-6-(acetyloxymethyl)-oxane-2-thiolate-(triethylphosphine)gold(I)]] | 3.4 ± 0.6 | 3.78 ± 0.01 | 3.7 ± 0.7 | the most effective gold(I) complex | 0.5 ± 1.1 | around 1 | 23.3 ± 3.6 | 19.4 ± 0.5 | significant decrease in the number of cells in the G0/G1 phase | – | – | – | –
2 | [Cl][Au].c1ccc(P(c2ccccc2)c2ccccc2)cc1 [[Au(PPh3)Cl]] | 5.2 ± 0.2 | 17 ± 0.5 | 9.9 ± 0.4 | – | – | – | – | – | – | did not show this effect | around 50% | 1.1 ± 1.1 | practically no effect on the cell cycle
